Source: ChEMBL document CHEMBL1149891, “Rationally designed PKA inhibitors for positron emission tomography: Synthesis and cerebral biodistribution of N-(2-(4-bromocinnamylamino)ethyl)-N-[11C]methyl-isoquinoline-5-sulfonamide” (Bioorg Med Chem, 2008)

Legend:
[1] = Inhibition of PKA
[2] = Biodistribution in tail vein injected Sprague-Dawley rat brain after 5 to 60 mins; format: ADME, organism-based; conditions: iv, read-out: Drug uptake
[3] = Partition coefficient, log P in phosphate buffer at pH 7.4; format: physicochemical

SMILES	IC50 [1] [nM]	tissue uptake [2] [%ID/g]	logD [3]
O=S(=O)(NCCNC/C=C/c1ccc(Br)cc1)c1cccc2cnccc12	940		
CN(CCNC/C=C/c1ccc(Br)cc1)S(=O)(=O)c1cccc2cnccc12	1280	< 0.2	2.93
